According to patent publication US8937064B2, “Pyrazolo[1,5-a]pyrimidines useful as JAK2 inhibitors” (Vertex Pharmaceuticals Incorporated, priority 2007, dated 2015):

Assays:
JAK3 = biological target: T1, JAK3 (Homo sapiens, UniProt P52333); assay: JAK3 Inhibition Assay; format: biochemical; details: 1 nM JAK3, 1 μM poly(Glu)4Tyr, 5 μM ATP, 25° C., 33P incorporation
T1 sequence (P52333 1-1124): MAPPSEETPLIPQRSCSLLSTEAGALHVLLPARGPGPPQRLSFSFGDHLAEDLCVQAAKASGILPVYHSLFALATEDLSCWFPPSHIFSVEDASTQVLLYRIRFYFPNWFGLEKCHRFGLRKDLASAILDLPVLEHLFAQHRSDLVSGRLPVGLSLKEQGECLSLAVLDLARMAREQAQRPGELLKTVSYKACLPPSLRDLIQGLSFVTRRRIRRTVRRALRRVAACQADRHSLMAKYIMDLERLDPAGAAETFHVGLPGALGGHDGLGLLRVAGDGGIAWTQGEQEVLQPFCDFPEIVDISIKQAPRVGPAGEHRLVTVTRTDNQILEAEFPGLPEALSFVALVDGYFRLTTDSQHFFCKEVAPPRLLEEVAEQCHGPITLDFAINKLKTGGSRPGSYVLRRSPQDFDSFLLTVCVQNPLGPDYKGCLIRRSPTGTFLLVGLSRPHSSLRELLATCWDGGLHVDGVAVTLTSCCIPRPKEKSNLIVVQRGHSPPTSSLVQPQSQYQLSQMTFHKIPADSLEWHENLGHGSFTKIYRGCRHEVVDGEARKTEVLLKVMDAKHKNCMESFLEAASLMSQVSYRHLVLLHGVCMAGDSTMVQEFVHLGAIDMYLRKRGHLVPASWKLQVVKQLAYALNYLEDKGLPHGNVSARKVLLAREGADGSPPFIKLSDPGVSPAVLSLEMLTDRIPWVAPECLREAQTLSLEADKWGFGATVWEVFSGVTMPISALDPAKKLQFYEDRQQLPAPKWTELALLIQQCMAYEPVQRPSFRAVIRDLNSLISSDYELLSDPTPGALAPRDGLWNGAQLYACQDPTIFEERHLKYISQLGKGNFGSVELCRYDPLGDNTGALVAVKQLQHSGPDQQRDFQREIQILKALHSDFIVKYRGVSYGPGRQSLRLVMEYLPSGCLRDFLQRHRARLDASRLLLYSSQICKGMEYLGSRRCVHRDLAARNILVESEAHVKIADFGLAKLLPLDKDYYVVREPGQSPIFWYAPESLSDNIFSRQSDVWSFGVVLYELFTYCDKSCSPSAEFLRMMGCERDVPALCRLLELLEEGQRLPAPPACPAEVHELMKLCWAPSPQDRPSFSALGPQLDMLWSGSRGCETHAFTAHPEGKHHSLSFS

JAK-2 enzyme = JAK-2 enzyme (Homo sapiens, UniProt O60674); assay: JAK2 Inhibition Assay
Sequence of JAK-2 enzyme (O60674 whole entry): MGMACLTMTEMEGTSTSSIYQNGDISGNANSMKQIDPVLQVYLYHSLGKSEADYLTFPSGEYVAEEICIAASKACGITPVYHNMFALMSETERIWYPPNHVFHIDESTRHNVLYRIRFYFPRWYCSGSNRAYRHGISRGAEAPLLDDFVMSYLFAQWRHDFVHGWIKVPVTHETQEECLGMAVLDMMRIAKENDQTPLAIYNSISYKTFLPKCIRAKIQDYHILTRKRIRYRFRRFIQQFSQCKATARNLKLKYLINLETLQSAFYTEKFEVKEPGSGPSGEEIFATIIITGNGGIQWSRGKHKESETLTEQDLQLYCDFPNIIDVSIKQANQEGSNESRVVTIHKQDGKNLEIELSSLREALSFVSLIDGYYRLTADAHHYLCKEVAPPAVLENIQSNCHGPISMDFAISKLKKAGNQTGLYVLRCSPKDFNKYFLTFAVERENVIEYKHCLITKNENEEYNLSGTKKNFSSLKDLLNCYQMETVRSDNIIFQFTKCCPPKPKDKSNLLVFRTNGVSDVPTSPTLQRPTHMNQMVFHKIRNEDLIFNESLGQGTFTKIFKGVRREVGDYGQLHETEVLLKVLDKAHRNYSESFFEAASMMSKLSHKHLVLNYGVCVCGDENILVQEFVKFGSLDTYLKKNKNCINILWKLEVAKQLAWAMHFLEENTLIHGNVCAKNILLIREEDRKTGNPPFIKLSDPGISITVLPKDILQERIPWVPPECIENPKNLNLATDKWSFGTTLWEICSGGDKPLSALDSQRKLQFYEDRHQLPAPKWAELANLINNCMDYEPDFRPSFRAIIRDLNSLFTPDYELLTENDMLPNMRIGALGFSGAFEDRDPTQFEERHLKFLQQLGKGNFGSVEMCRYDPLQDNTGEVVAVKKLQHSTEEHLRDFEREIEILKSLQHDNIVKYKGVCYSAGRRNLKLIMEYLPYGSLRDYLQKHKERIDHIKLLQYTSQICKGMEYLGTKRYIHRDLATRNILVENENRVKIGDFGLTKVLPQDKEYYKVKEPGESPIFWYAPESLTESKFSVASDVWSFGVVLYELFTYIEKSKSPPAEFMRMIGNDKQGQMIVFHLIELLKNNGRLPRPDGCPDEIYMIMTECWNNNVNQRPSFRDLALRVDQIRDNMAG
Procedure: Reactions were carried out in a kinase buffer containing 100 mM HEPES (pH 7.4), 1 mM DTT, 10 mM MgCl2, 25 mM NaCl, and 0.01% BSA. Substrate concentrations in the assay were 5 μM ATP (200 uCi/μmole ATP) and 1 μM poly(Glu)4Tyr. Reactions were carried out at 25° C. and 1 nM JAK3.
To each well of a 96 well polycarbonate plate was added 1.5 μl of a candidate JAK3 inhibitor along with 50 μl of kinase buffer containing 2 μM poly(Glu)4Tyr and 10 μM ATP. This was then mixed and 50 μl of kinase buffer containing 2 nM JAK3 enzyme was added to start the reaction. After 20 minutes at room temperature (25° C.), the reaction was stopped with 50 μl of 20% trichloroacetic acid (TCA) that also contained 0.4 mM ATP. The entire contents of each well were then transferred to a 96 well glass fiber filter plate using a TomTek Cell Harvester. After washing, 60 μl of scintillation fluid was added and ^33P incorporation detected on a Perkin Elmer TopCount.

SMILES	Ki (JAK3)	Ki (JAK-2 enzyme)
CCC(C#N)Oc1nc(N[C@@H](C)c2ccc(F)cc2F)cc(-c2cnn3cccnc23)n1 (some centres unmarked) [Compound 192]	10 to 100 nM	< 10 nM
C[C@H](Nc1cc(-c2cnn3cccnc23)nc(OCC(C)(C)N(C)C)n1)c1ccc(F)cc1F [Compound 193]	100 to 500 nM	< 10 nM
COC(C)(C)CCOc1nc(N[C@@H](C)c2ccc(F)cc2F)cc(-c2cnn3cccnc23)n1 [Compound 194]	100 to 500 nM	10 to 100 nM
C[C@H](Nc1cc(-c2cnn3cccnc23)nc(OCCN2CCCCC2)n1)c1ccc(F)cc1F [Compound 195]	10 to 100 nM	< 10 nM
COCCOc1nc(N[C@@H](C)c2ccc(F)cc2F)cc(-c2cnn3cccnc23)n1 [Compound 196]	10 to 100 nM	< 10 nM
C[C@H](Nc1cc(-c2cnn3cccnc23)nc(OCCN(C)C)n1)c1ccc(F)cc1F [Compound 197]	10 to 100 nM	< 10 nM
C[C@H](Nc1cc(-c2cnn3cccnc23)nc(OCCC2CCCCN2)n1)c1ccc(F)cc1F (some centres unmarked) [Compound 198]	10 to 100 nM	< 10 nM
CNCCOc1nc(N[C@@H](C)c2ccc(F)cc2F)cc(-c2cnn3cccnc23)n1 [Compound 199]	10 to 100 nM	< 10 nM
C[C@H](Nc1cc(-c2cnn3cccnc23)nc(OC2CCN(C)CC2)n1)c1ccc(F)cc1F [Compound 200]	100 to 500 nM	< 10 nM
CC(C#N)Oc1nc(N[C@@H](C)c2ccc(F)cc2F)cc(-c2cnn3cccnc23)n1 (some centres unmarked) [Compound 201]	10 to 100 nM	< 10 nM
C[C@H](Nc1cc(-c2cnn3cccnc23)nc(OCC2CCCNC2)n1)c1ccc(F)cc1F (some centres unmarked) [Compound 202]	10 to 100 nM	< 10 nM
C[C@H](Nc1cc(-c2cnn3cccnc23)nc(OCCOCCN2CCNCC2)n1)c1ccc(F)cc1F [Compound 203]	100 to 500 nM	10 to 100 nM
C[C@H](Nc1cc(-c2cnn3cccnc23)nc(OCCN2CCCC2)n1)c1ccc(F)cc1F [Compound 204]	10 to 100 nM	< 10 nM
C[C@H](Nc1cc(-c2cnn3cccnc23)nc(OCC2CC2)n1)c1ccc(F)cc1F [Compound 205]	100 to 500 nM	< 10 nM
C[C@H](Nc1cc(-c2cnn3cccnc23)nc(OCCNC(C)(C)C)n1)c1ccc(F)cc1F [Compound 206]	10 to 100 nM	< 10 nM
CC(C)NCCOc1nc(N[C@@H](C)c2ccc(F)cc2F)cc(-c2cnn3cccnc23)n1 [Compound 207]	10 to 100 nM	< 10 nM

The next lines start with the values.

Ki (JAK3)	Ki (JAK-2 enzyme)	SMILES
10 to 100 nM	< 10 nM	CCN(CC)CCOc1nc(N[C@@H](C)c2ccc(F)cc2F)cc(-c2cnn3cccnc23)n1 [Compound 208]
10 to 100 nM	< 10 nM	C[C@H](Nc1cc(-c2cnn3cccnc23)nc(OCCN2CCCC2=O)n1)c1ccc(F)cc1F [Compound 209]
10 to 100 nM	< 10 nM	C[C@H](Nc1cc(-c2cnn3cccnc23)nc(OCCN2CCNCC2)n1)c1ccc(F)cc1F [Compound 210]
10 to 100 nM	< 10 nM	C[C@H](Nc1cc(-c2cnn3cccnc23)nc(OCCCN(C)C)n1)c1ccc(F)cc1F [Compound 211]
10 to 100 nM	< 10 nM	CSCCOc1nc(N[C@@H](C)c2ccc(F)cc2F)cc(-c2cnn3cccnc23)n1 [Compound 212]
10 to 100 nM	< 10 nM	C[C@H](Nc1cc(-c2cnn3cccnc23)nc(OCCN2CCOCC2)n1)c1ccc(F)cc1F [Compound 213]
100 to 500 nM	< 10 nM	CC1CC1COc1nc(N[C@@H](C)c2ccc(F)cc2F)cc(-c2cnn3cccnc23)n1 (some centres unmarked) [Compound 214]
10 to 100 nM	< 10 nM	C[C@H](Nc1cc(-c2cnn3cccnc23)nc(OCC2CCCN(C)C2)n1)c1ccc(F)cc1F (some centres unmarked) [Compound 215]
100 to 500 nM	< 10 nM	C[C@H](Nc1cc(-c2cnn3cccnc23)nc(OCC2CCCN2)n1)c1ccc(F)cc1F (some centres unmarked) [Compound 216]
10 to 100 nM	< 10 nM	C[C@H](Nc1cc(-c2cnn3cccnc23)nc(OCCN2CCCCCC2)n1)c1ccc(F)cc1F [Compound 217]
100 to 500 nM	10 to 100 nM	C[C@H](Nc1cc(-c2cnn3cccnc23)nc(OC2CCNC2)n1)c1ccc(F)cc1F (some centres unmarked) [Compound 218]
10 to 100 nM	< 10 nM	CC(C)OCCOc1nc(N[C@@H](C)c2ccc(F)cc2F)cc(-c2cnn3cccnc23)n1 [Compound 219]
10 to 100 nM	< 10 nM	C[C@H](Nc1cc(-c2cnn3cccnc23)nc(OCCCNCc2ccncc2)n1)c1ccc(F)cc1F [Compound 220]
10 to 100 nM	< 10 nM	C=CCOCCOc1nc(N[C@@H](C)c2ccc(F)cc2F)cc(-c2cnn3cccnc23)n1 [Compound 221]
10 to 100 nM	< 10 nM	C[C@H](Nc1cc(-c2cnn3cccnc23)nc(OCC2CCOC2)n1)c1ccc(F)cc1F (some centres unmarked) [Compound 222]
100 to 500 nM	10 to 100 nM	C[C@H](Nc1cc(-c2cnn3cccnc23)nc(OCC2CCCC2)n1)c1ccc(F)cc1F [Compound 223]
100 to 500 nM	10 to 100 nM	C[C@H](Nc1ccnc(-c2cnn3cccnc23)n1)c1ccc(F)cc1 [Compound 224]
500 to 5000 nM	10 to 100 nM	CC[C@H](Nc1ccnc(-c2cnn3cccnc23)n1)c1ccc(F)c(F)c1 [Compound 225]
500 to 5000 nM	100 to 500 nM	C[C@H](Nc1ccnc(-c2cnn3cccnc23)n1)c1ccc(Cl)cc1 [Compound 226]
500 to 5000 nM	100 to 500 nM	O=C(Nc1ccnc(-c2cnn3cccnc23)c1)c1ccc(F)cc1 [Compound 227]
500 to 5000 nM	100 to 500 nM	O=C(Nc1ccnc(-c2cnn3cccnc23)c1)c1ccccc1F [Compound 228]
500 to 5000 nM	100 to 500 nM	O=C(Nc1ccnc(-c2cnn3cccnc23)c1)c1ccc(F)cc1F [Compound 229]
500 to 5000 nM	100 to 500 nM	N#Cc1cccc(C(=O)Nc2ccnc(-c3cnn4cccnc34)c2)c1 [Compound 230]
500 to 5000 nM	100 to 500 nM	O=C(Nc1ccnc(-c2cnn3cccnc23)c1)c1ccc(F)c(F)c1 [Compound 231]
